In patent publication US8623853B2, “Treatment of cancers characterized by chromosomal rearrangement of the NUT gene” (The Brigham and Women's Hospital, Inc., priority 2008, dated 2014):

Experiments:
[1] = pharmacologically achievable range; cited from earlier work
[2] = tested on: NMC cell lines; assay: SAHA treatment of five NMC cell lines; format: cell-based; conditions: pharmacologic doses
[3] = tested on: NMC (TC797) cells; assay: High-content 384-well assay of proliferation, histone acetylation and keratin expression adapted to NMC culture; format: cell-based
Description: A cell based approach was developed for identifying potent and selective HDAC inhibitors. Nuclear acetylation correlates with inhibition of class I deacetylases such as HDAC1 and HDAC2. An automated epiflourescent assay was therefore developed which is measures histone hyperacetylation. Cells were seeded in 384-well plate format (500 cells/well) and treated with compound. They were then fixed and stained with: a) Hoechst (nuclei); b) primary anti-AcHistone polyclonal Ab; c) anti-Keratin monoclonal antibody; and d) compatible flurophore-conjugated secondary antibodies. After automated image acquisition, a custom analysis program was applied that identifies and masks cells based on nuclear intensity (Hoechst) and then derives quantitative fluorescent data from the FITC (AcHistone) image. Subsequent secondary masks were generated using cytosolic intensity.
We have performed studies of HDAC inhibitor effects on NMC cells in culture using an adaptation of the assay described above. […] In a first attempt at multiplexed detection and quantification of effects on cell proliferation, histone acetylation, and keratin protein expression, we have witnessed clear, dose-response activity of SAHA in the pharmacologically achievable range (Cmax approximately 2 μM).

[4] = tested on: NMC cells; assay: TSA dose- and time-ranging studies in cultured NMC cells (immunofluorescence, bright-field microscopy, keratin immunohistochemistry); format: cell-based
Description: Studies aimed at testing the hypothesis of HDAC inhibitor therapy in NMC have been conducted using trichostatin A (TSA), and vorinostat (SAHA, Zolinza®). Both of these compounds are regarded as non-selective for class I and II deacetylases and bind HDAC proteins by chelating the active site zinc atom with a hydroxamic acid feature. NMC cells cultured in vitro were treated with TSA in dose- and time-ranging studies. […] With further drug exposure, a differentiation phenotype was observed by bright-field microscopy and by immunohistochemistry for the epithelial differentiation-associated protein, keratin.

Compound: O=C(CCCCCCC(=O)Nc1ccccc1)NO [SAHA, suberoylanilide hydroxamic acid]
- Cmax [1]: ~2000 nM
- differentiation [2]: resulted in differentiation
- growth [2]: arrested growth
- histone acetylation ([3]; dose-ranging, qualitative in images): increased histone acetylation
- cell proliferation ([3]; multiplexed detection): reduction in cell proliferation
- keratin protein content ([3]; multiplexed detection): induction of increased keratin protein content

Compound: CC(/C=C/C(=O)NO)=C\[C@@H](C)C(=O)c1ccc(N(C)C)cc1 [TSA, trichostatin A]
- differentiation by brightfield microscopy ([4]; TSA 25 nM, within 24 hours): rapidly differentiate
- distribution of BRD-NUT and acetylation marks ([4]; immunofluorescence microscopy): redistribution of both BRD-NUT and acetylation marks from nuclear speckles to a diffuse pattern
- histone acetylation ([4]; immunofluorescence microscopy, dose- and time-ranging): increase in histone acetylation with increasing dose and time of exposure
- cytoplasmic keratin staining ([4]; immunohistochemistry): increases in cytoplasmic keratin staining
